Measurements as given in patent publication US8415469B2, “Compounds and methods for kinase modulation, and indications therefor” (Plexxikon Inc., priority 2005, dated 2013).

Columns and labels:
Format in all cases: biochemical
Jnk1 = molecular target: T1, Jnk1 (Homo sapiens, UniProt P45983); assay: AlphaScreen kinase assay, Jnk1; details: read-out: IC50, activity toward kinase Jnk1
T1 construct: purchased Upstate Biotechnology

Fak = molecular target: T2, Fak (Homo sapiens, UniProt Q05397); assay: AlphaScreen kinase assay, Fak; details: read-out: IC50, activity toward kinase Fak
T2 construct: P1358.pFastBacHtb FAK S411-Q686-X; His6 with pFastBacHTb leader (TEV site) (N); made in house; host or cells: Sf9 (baculovirus)

Jnk3 = molecular target: T3, Jnk3 (Homo sapiens, UniProt P53779); assay: AlphaScreen kinase assay, Jnk3; details: read-out: IC50, activity toward kinase Jnk3
T3 construct: purchased Upstate Biotechnology

Kit = molecular target: T4, Kit (Homo sapiens, UniProt P10721); assay: AlphaScreen kinase assay, Kit; details: read-out: IC50, activity toward kinase Kit
T4 construct: P1332.N6 BI PTP KIT M552-K948-X COD; His6 (N); made in house; host or cells: E. coli (PTP1B co-expressed)

Fms = molecular target: T5, Fms (Homo sapiens, UniProt P07333); assay: AlphaScreen kinase assay, Fms; details: read-out: IC50, activity toward kinase Fms
T5 construct: purchased Upstate Biotechnology

Flt1 = molecular target: T6, Flt1 (Homo sapiens, UniProt P17948); assay: AlphaScreen kinase assay, Flt1; details: read-out: IC50, activity toward kinase Flt1
T6 construct: P1826.pETN6 BI-PTP FLT1 M799-D1165-X WT; His6 (N); made in house; host or cells: E. coli (PTP1B co-expressed)
T6 sequence (P17948 with tags, fused parts or gaps): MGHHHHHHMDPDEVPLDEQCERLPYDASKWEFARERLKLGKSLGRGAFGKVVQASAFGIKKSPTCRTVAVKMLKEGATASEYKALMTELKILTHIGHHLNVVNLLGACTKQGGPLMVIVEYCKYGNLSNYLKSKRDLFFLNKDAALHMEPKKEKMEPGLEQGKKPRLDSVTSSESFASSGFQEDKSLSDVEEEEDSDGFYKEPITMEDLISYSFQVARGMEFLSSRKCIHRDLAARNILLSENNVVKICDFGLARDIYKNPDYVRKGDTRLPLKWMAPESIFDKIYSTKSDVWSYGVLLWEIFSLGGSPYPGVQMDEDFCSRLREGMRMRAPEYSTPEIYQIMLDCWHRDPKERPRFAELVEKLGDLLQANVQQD

FGFR1 = molecular target: T7, FGFR1 (Homo sapiens, UniProt P11362, C488A/C584S); assay: AlphaScreen kinase assay, FGFR1; details: read-out: IC50, activity toward kinase FGFR
T7 construct: P1351.pET N6 BI-PTP FGFR A458-E765-X C488A, C584S; made in house; host or cells: E. coli (PTP1B co-expressed)

B-Raf V600E = molecular target: T8, B-Raf V600E (Homo sapiens, UniProt P15056, V600E); assay: AlphaScreen kinase assay, B-Raf V600E; details: read-out: IC50, activity toward kinase B-Raf V600E
T8 construct: P4254. pFastBacBD-CDC37 BRAF D437-K722-X, V600E; His6 with pFastBac HT leader (TEV site) (N); made in house; host or cells: Sf9 (baculovirus; chaperone CDC37 co-expressed)

Kdr = molecular target: T9, Kdr (Homo sapiens, UniProt P35968); assay: Z'-Lyte FRET kinase assay (Invitrogen), Kdr; details: read-out: IC50, activity toward kinase Kdr
T9 construct: purchased Invitrogen (assay run by Invitrogen)

B-Raf = molecular target: T10, B-Raf (Homo sapiens, UniProt P15056); assay: AlphaScreen kinase assay, B-Raf; details: read-out: IC50, activity toward kinase B-Raf
T10 construct: purchased Upstate Biotechnology
Excerpt: AlphaScreen assay was used to screen additional kinases. The assay is similarly dependent on the phosphorylation of a peptide substrate. In this assay, an antibody that recognizes phosphorylated substrate is bound to an acceptor bead. The peptide substrate is attached to biotin, which binds to a donor head that contains streptavidin. Thus phosphorylated substrate is bound by antibody and streptavidin, bringing the donor and acceptor heads into close proximity when kinase is not inhibited. The donor produces singlet oxygen which results in emission from the acceptor when they are in close proximity. Conversely, when kinase is inhibited, the donor and acceptor beads are not associated and the emission from the acceptor is reduced.
AlphaScreen assays were done using compounds dissolved in DMSO to a concentration of 20 mM. The compounds were diluted accordingly to the desired final concentrations in each sample well, using 1:3 serial dilution for a total of 8 concentration points. Plates were prepared such that each kinase reaction is 20 μl in 1× kinase buffer, 5% DMSO and 10 μM ATP. After incubation of the kinase reaction for 1 hour at room temperature, 5 μl of donor beads in stop buffer (50 mM EDTA in 1× kinase buffer) was added, the sample was mixed and incubated for 20 minutes at room temperature before adding 5 μl of acceptor beads in stop buffer. The samples were incubated for 60 minutes at room temperature and the signal per well was read on AlphaQuest reader.

Ret = molecular target: T11, Ret (Homo sapiens, UniProt P07949); assay: AlphaScreen kinase assay, Ret; details: read-out: IC50, activity toward kinase Ret
T11 construct: P1378.pET-SF BI-PTP RET H661-R1012 HIS; made in house
T11 sequence (P07949 with tags, fused parts or gaps): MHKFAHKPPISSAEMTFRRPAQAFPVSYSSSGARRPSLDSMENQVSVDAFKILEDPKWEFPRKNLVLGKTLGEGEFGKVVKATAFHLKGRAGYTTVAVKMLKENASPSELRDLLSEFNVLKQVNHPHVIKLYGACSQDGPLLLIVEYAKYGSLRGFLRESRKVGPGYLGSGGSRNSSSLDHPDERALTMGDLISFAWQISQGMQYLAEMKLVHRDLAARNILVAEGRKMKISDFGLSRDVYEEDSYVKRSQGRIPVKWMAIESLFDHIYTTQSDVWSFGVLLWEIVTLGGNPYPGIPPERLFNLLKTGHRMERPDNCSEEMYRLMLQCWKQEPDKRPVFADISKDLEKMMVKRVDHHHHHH

c-Raf-1 = molecular target: T12, c-Raf-1 (Homo sapiens, UniProt P04049); assay: AlphaScreen kinase assay, c-Raf-1; details: read-out: IC50, activity toward kinase c-Raf-1
T12 construct: purchased Upstate Biotechnology

Measured: IC50

T2 sequence (Q05397 411-686): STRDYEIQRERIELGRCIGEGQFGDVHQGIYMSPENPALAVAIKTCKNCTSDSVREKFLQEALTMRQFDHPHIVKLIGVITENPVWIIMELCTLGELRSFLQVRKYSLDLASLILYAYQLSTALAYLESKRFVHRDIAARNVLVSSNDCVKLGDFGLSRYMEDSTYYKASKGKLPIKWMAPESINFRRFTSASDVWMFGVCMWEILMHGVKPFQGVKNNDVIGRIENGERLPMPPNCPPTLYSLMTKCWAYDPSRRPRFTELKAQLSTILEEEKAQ
T4 sequence (P10721 with tags, fused parts or gaps): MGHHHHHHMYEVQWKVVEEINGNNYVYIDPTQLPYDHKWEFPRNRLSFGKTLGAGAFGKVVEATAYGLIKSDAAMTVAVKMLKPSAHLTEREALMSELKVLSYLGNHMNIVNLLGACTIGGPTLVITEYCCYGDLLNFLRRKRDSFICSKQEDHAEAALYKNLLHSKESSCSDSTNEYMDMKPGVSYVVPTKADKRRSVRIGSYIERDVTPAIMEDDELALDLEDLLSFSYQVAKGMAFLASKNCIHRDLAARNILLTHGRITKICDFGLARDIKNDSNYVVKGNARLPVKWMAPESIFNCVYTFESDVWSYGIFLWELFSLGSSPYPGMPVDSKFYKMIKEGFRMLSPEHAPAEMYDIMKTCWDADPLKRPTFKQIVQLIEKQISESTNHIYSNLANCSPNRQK
T10 sequence (P15056 whole entry): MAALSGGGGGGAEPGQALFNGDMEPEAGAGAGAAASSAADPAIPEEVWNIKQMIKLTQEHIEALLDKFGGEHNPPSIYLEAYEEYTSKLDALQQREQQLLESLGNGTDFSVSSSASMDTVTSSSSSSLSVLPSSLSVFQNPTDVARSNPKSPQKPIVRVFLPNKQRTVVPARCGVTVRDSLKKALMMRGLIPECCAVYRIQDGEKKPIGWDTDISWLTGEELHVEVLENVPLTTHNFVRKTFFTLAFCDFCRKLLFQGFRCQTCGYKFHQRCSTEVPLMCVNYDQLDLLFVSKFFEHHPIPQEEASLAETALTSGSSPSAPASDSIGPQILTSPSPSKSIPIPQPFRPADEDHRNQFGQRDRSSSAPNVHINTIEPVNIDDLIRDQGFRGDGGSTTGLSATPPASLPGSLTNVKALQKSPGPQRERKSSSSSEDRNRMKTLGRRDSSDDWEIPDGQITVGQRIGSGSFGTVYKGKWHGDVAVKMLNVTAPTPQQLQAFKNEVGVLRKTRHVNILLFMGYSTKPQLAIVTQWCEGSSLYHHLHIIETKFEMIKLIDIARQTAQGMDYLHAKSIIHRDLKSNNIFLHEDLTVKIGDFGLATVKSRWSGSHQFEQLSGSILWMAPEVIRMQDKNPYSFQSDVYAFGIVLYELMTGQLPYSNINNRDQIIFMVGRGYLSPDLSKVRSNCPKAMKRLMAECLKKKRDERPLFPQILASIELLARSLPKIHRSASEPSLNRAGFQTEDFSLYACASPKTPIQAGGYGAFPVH
T8 sequence (P15056 with tags, fused parts or gaps V600E): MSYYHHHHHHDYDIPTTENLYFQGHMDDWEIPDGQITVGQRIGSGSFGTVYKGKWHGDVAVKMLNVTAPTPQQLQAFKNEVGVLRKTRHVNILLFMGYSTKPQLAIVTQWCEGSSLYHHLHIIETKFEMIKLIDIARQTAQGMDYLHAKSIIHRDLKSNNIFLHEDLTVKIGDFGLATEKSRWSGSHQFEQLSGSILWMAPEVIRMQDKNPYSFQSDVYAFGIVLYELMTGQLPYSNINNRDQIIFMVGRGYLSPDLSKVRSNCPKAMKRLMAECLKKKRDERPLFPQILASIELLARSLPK
T7 sequence (P11362 458-765 C488A/C584S): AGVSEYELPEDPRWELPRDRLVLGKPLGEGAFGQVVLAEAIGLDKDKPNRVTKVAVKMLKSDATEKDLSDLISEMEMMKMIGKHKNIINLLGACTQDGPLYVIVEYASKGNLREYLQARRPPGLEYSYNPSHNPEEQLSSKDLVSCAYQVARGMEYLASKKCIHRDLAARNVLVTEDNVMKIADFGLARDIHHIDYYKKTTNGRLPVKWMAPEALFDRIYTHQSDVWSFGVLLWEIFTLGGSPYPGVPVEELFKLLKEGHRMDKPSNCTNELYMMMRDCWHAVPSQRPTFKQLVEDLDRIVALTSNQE
T1 sequence (P45983 whole entry): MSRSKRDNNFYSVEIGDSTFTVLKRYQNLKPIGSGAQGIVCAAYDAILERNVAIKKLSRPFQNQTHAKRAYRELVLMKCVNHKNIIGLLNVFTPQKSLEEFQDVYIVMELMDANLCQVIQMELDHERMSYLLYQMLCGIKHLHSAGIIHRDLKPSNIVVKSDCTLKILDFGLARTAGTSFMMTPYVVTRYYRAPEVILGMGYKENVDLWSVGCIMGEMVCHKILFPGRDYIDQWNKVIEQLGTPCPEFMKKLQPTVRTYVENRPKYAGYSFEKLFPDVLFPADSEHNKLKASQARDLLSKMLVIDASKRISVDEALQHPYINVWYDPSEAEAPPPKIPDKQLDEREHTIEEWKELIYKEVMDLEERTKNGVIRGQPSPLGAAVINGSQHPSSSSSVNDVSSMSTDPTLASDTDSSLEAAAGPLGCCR
T5 sequence (P07333 20-972): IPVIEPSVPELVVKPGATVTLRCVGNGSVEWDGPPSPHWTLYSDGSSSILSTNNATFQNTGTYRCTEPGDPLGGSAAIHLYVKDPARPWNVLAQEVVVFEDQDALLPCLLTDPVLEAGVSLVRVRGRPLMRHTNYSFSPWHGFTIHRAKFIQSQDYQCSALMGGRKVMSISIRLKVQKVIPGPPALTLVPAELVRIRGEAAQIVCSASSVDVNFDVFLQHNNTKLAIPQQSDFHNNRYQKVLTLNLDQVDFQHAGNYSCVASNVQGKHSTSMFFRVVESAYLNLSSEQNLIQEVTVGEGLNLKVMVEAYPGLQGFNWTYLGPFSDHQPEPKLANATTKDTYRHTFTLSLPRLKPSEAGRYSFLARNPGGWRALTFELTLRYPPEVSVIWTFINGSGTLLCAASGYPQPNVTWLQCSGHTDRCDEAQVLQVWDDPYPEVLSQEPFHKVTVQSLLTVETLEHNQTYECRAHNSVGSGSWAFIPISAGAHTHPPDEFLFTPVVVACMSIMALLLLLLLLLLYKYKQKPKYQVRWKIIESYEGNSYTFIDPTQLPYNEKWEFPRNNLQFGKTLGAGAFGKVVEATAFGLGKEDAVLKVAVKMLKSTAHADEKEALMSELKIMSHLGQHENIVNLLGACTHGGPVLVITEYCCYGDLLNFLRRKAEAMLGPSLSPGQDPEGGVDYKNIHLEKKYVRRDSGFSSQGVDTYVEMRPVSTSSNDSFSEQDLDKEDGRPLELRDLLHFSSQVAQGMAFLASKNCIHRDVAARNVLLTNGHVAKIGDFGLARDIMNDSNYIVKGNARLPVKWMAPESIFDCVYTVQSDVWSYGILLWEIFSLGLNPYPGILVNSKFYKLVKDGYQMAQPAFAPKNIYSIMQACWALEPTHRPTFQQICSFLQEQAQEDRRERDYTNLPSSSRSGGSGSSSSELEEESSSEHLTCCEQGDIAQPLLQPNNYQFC
T12 sequence (P04049 whole entry): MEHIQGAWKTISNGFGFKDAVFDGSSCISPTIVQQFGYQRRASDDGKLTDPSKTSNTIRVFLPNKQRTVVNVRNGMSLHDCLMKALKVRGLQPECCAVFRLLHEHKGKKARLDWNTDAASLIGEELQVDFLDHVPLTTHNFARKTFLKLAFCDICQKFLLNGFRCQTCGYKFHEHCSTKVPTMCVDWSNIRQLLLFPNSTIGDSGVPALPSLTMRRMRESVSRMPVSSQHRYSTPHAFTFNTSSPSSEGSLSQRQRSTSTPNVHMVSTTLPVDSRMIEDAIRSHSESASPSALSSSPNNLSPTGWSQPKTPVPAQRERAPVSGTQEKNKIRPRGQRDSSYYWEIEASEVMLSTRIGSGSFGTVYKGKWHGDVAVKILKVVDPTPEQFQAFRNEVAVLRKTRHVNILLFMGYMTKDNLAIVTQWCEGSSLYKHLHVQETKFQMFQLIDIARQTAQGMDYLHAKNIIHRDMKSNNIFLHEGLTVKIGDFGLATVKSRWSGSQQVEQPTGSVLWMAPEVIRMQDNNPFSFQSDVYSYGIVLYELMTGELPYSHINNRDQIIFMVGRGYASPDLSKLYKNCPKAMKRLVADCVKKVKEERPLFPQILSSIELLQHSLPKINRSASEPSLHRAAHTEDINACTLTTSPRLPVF
T3 sequence (P53779 whole entry): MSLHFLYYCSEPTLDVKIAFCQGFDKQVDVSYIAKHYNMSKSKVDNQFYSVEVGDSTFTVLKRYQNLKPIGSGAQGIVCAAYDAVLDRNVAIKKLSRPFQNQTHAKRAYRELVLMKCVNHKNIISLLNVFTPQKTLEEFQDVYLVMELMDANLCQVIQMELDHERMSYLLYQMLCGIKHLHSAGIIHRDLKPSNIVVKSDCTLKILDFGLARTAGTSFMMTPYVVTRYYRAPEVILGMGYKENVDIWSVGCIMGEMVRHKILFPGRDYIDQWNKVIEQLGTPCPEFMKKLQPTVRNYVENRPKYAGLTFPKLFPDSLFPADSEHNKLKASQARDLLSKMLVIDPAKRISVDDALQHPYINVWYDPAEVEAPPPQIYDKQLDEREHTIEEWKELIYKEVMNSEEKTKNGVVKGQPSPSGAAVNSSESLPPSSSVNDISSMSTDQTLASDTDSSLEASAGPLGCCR

CN(c1ccc(F)c(C(O)c2c[nH]c3ncc(-c4cccnc4)cc23)c1F)S(=O)(=O)c1ccc(C(F)(F)F)cc1 (stereo not drawn) [Compound P-1400]
≤ 10 µM: Jnk1 | Fak | Jnk3 | Kit | Fms

FC(F)(F)Oc1ccc(Nc2c[nH]c3ncccc23)cc1 [Compound P-1492, (1H-Pyrrolo[2,3-b]pyridin-3-yl)-(4-trifluoromethoxy-phenyl)-amine]
≤ 10 µM: Fak | Flt1 | Fms

Fc1cccc(F)c1Cc1c[nH]c2ncccc12 [Compound P-1482, 3-(2,6-Difluoro-benzyl)-1H-pyrrolo[2,3-b]pyridine]
≤ 10 µM: FGFR1 | Fak | Kit | Fms

Clc1cc(Cl)cc(Nc2c[nH]c3ncccc23)c1 [Compound P-1502, (3,5-Dichloro-phenyl)-(1H-pyrrolo[2,3-b]pyridin-3-yl)-amine]
≤ 10 µM: Fak | Flt1 | Kit | Fms

O=[N+]([O-])c1cccc(Cc2c[nH]c3ncc(-c4cccnc4)cc23)c1 [Compound P-1402, 3-(3-nitro-benzyl)-5-pyridin-3-yl-1H-pyrrolo[2,3-b]pyridine]
≤ 10 µM: Jnk1 | FGFR1 | Fak | Kit | B-Raf V600E | Fms

OC(c1ccccc1F)c1c[nH]c2ncc(Br)cc12 (stereo not drawn) [Compound P-1321]
≤ 10 µM: FGFR1 | Fak | Kit | Fms

O=C(c1ccccc1F)c1c[nH]c2ncc(Br)cc12 [Compound P-0293]
not listed: Jnk1 | Jnk3 | Flt1 | c-Raf-1
≤ 10 µM: all other assays above

NS(=O)(=O)c1cccc(Nc2c[nH]c3ncccc23)c1 [Compound P-1500, 3-(1H-Pyrrolo[2,3-b]pyridin-3-ylamino)-benzenesulfonamide]
≤ 10 µM: Fak | Kit | Fms

Cc1[nH]c2ncccc2c1-c1ccc(F)c(Cl)c1 [Compound P-1146]
≤ 10 µM: Fak

COc1cccc(Cc2c[nH]c3ncc(-c4ccccc4)cc23)c1F [Compound P-1323, 3-(2-Fluoro-3-methoxy-benzyl)-5-phenyl-1H-pyrrolo[2,3-b]pyridine]
≤ 10 µM: FGFR1 | Fak | Kit | B-Raf V600E | Fms

COCCOc1ccc(F)c(C(=O)c2c[nH]c3ncc(-c4cccnc4)cc23)c1F [Compound P-1456, [2,6-Difluoro-3-(2-methoxy-ethoxy)-phenyl]-(5-pyridin-3-yl-1H-pyrrolo[2,3-b]pyridin-3-yl)-methanone]
not listed: Jnk3 | Flt1 | Kdr | Ret
≤ 10 µM: all other assays above

Cc1cccc(C)c1Cc1c[nH]c2ncccc12 [Compound P-0333, 3-(2,6-Dimethyl-benzyl)-1H-pyrrolo[2,3-b]pyridine]
≤ 10 µM: Fak | Kit | B-Raf V600E | Fms

CCCCN(c1ccc(F)c(Cc2c[nH]c3ncc(-c4cccnc4)cc23)c1F)S(=O)(=O)c1ccc(C(F)(F)F)cc1 [Compound P-1401]
≤ 10 µM: Fak

COc1cccc(Cc2c[nH]c3ncc(-c4cccc(NS(C)(=O)=O)c4)cc23)c1F [Compound P-1329, N-{3-[3-(2-Fluoro-3-methoxy-benzyl)-1H-pyrrolo[2,3-b]pyridin-5-yl]-phenyl}-methanesulfonamide]
≤ 10 µM: FGFR1 | Fak | Kit | B-Raf V600E | Fms

Cc1[nH]c2ncccc2c1-c1ccc(C(C)C)cc1 [Compound P-1083]
≤ 10 µM: Fak

Brc1cnc2[nH]cc(Cc3ccc4c(c3)OCCO4)c2c1 [Compound P-1474, 5-Bromo-3-(2,3-dihydro-benzo[1,4]dioxin-6-ylmethyl)-1H-pyrrolo[2,3-b]pyridine]
≤ 10 µM: FGFR1 | Fak | Kit | B-Raf V600E | Fms

COCCOc1ccc(F)c(C(O)c2c[nH]c3ncc(Br)cc23)c1F (stereo not drawn) [Compound P-1452]
≤ 10 µM: FGFR1 | B-Raf | Fak | Kit | B-Raf V600E | Fms | c-Raf-1

Cc1cc(C)cc(-c2c(C)[nH]c3ncccc23)c1 [Compound P-1054]
≤ 10 µM: Fak

CC(C)CCc1c[nH]c2ncccc12 [Compound P-0797]
≤ 10 µM: Fak

Cc1[nH]c2ncccc2c1-c1ccco1 [Compound P-1190]
≤ 10 µM: Fak

c1cc2ccc(Nc3ccc(N4CCCCC4)cc3)nc2[nH]1 [Compound P-1359, (4-Piperidin-1-yl-phenyl)-(1H-pyrrolo[2,3-b]pyridin-6-yl)-amine]
≤ 10 µM: Jnk1 | Fak | Jnk3

OCCOc1ccc(F)c(Cc2c[nH]c3ncc(Br)cc23)c1F [Compound P-1392, 2-[3-(5-Bromo-1H-pyrrolo[2,3-b]pyridin-3-ylmethyl)-2,4-difluoro-phenoxy]-ethanol]
≤ 10 µM: FGFR1 | Fak | Kit | B-Raf V600E | Fms

COc1cccc(C(=O)c2ccc(-c3cnc4[nH]ccc4c3)s2)c1 [Compound P-0494]
≤ 10 µM: Fak

COc1ccc(CCCc2c[nH]c3ncccc23)cc1 [Compound P-0437]
≤ 10 µM: Fak

COc1ccc(Cc2c[nH]c3ncc(-c4cccc(C(N)=O)c4)cc23)c(F)c1 [Compound P-1341]
≤ 10 µM: FGFR1 | B-Raf | Fak | Kit | B-Raf V600E | Fms
